# Measured values published in the supplement of paper PMC12317010.
# Counter-ions that a name gives are not always drawn.
# Assay: collision cross section in nitrogen (drift tube, single-field); higher = larger gas-phase ion size
# [1] = ion type: [M+H], ion source: APCI, ion mode: Positive
# [2] = ion type: [M+H], ion source: ESI, ion mode: Positive
# [3] = ion type: [M-H], ion source: ESI, ion mode: Negative
# [4] = ion source: APCI, ion mode: Positive, ion type: [M]+ (permanent cation)
# [5] = ion source: ESI, ion mode: Positive, ion type: [M]+ (permanent cation)
# [6] = ion type: [M+Na], ion source: ESI, ion mode: Positive
# [7] = ion type: [M+], ion source: APCI, ion mode: Positive
# 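Further: chemical standards at 10 µM analysed by drift tube IMS-QTOF MS in about 3.95 torr nitrogen, mean of duplicate injections differing ≤1%, mass error below 10 ppm.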
collision cross section in nitrogen [1] [Å²],collision cross section in nitrogen [3] [Å²],collision cross section in nitrogen [6] [Å²],SMILES,collision cross section in nitrogen [2] [Å²],also measured
,203.1,,O=C(O)Cc1cc(I)c(Oc2cc(I)c(O)c(I)c2)c(I)c1 [Tetrac],,
,161.8,,CCCCCCCCCCCCCC(=O)O [Tetradecanoic acid],,
171.2,,176.9,C=C(C)C(=O)OCCOCCOCCOCCOC(=O)C(=C)C [Tetraethyleneglycol dimethacrylate],,
,,148.5,NCCNCCNCCNCCN [Tetraethylenepentamine],,
,,173.2,CCN(CC)C(=S)SSC(=S)N(CC)CC [Tetraethylthiuram disulfide],,
,,161.4,CC(C)C(=O)OCC(C)(C)C(O)C(C)C (configuration not stated) [Texanol],,
136.3,,146.7,Cn1c(=O)c2[nH]cnc2n(C)c1=O [Theophylline],137.3,
126.1,,,Cc1ncsc1CCO [Thiamine thiozole],126.5,
132.5,,,S=P(N1CC1)(N1CC1)N1CC1 [Thiotepa],132.5,
175.5,178.1,183.1,Cc1ccc(S(=O)(=O)NC(=O)NN2CCCCCC2)cc1 [Tolazamide],175.4,
163.3,,,"Cc1ccc(N2C(=O)C=CC2=O)cc1N1C(=O)C=CC1=O [Toluene-2,4-dimaleimide]",,
200.1,203.8,207.9,NC(=O)Cn1c(=O)cc(CCN2CCN(c3nccc4sccc34)CC2)c2ccc(F)cc21 [Trelanserin],202.8,
,,189.3,C=CCOC(=O)c1ccc(C(=O)OCC=C)c(C(=O)OCC=C)c1 [Triallyl trimellitate],,
169.1,,,c1ccc(CN(Cc2ccccc2)Cc2ccccc2)cc1 [Tribenzylamine],169.2,

# The remaining lines, values behind:
SMILES,collision cross section in nitrogen [1] [Å²],collision cross section in nitrogen [3] [Å²],collision cross section in nitrogen [6] [Å²],collision cross section in nitrogen [2] [Å²],also measured
CCNc1nc(Cl)nc(NC(C)(C)C)n1 [Terbutylazine],153.8,,,153.8,
O=C(O)c1ccc(C(=O)O)cc1 [Terephthalic acid],,134,,,
CC(c1cc(C(C)(C)C)cc(C(C)(C)C)c1O)c1cc(C(C)(C)C)cc(C(C)(C)C)c1O [Tetrabutyl ethylidenebisphenol],,224.4,,,
CCCC[N+](CCCC)(CCCC)CCCC [Tetrabutylammonium bromide],,,,,collision cross section in nitrogen [4]: 167.2 Å²; collision cross section in nitrogen [5]: 168 Å²
CCCC[P+](CCCC)(CCCC)CCCC [Tetrabutylphosphonium chloride],,,,,collision cross section in nitrogen [4]: 172.4 Å²
Oc1c(O)c(Cl)c(Cl)c(Cl)c1Cl [Tetrachlorocatechol],,135.1,,,
O=C1OC(=O)c2c(Cl)c(Cl)c(Cl)c(Cl)c21 [Tetrachlorophthalic anhydride],,158.1,,,
FC(F)C(F)(F)OCC(Cn1cncn1)c1ccc(Cl)cc1Cl (configuration not stated) [Tetraconazole],177.6,,,176.6,
CCCCCCCCCCCCCC[n+]1ccccc1 [Tetradecylpyridinium bromide],,,,,collision cross section in nitrogen [4]: 185.4 Å²; collision cross section in nitrogen [5]: 185.9 Å²
CCCCCCCCCCCCCC[N+](C)(C)C [Tetradonium bromide],,,,,collision cross section in nitrogen [4]: 185.1 Å²; collision cross section in nitrogen [5]: 185.7 Å²
CCOP(=O)(CCP(=O)(OCC)OCC)OCC [Tetraethyl ethylenebisphosphonate],,,172.3,161.1,
CC[N+](CC)(CC)CC [Tetraethylammonium bromide],,,,,collision cross section in nitrogen [5]: 125.7 Å²
CCCCC(CC)C(=O)OCCOCCOCCOCCOC(=O)C(CC)CCCC (configuration not stated) [Tetraethylene glycol di(2-ethylhexanoate)],,,214.4,,
COc1cc(CCC(=O)CC(=O)CCc2ccc(O)c(OC)c2)ccc1O [Tetrahydrocurcumin],,184.8,181.2,,
CC(C)OP(=O)(CP(=O)(OC(C)C)OC(C)C)OC(C)C [Tetraisopropyl methylenediphosphonate],174.6,177.7,185,,
c1ccc2[nH]c(-c3cscn3)nc2c1 [Thiabendazole],141.6,142,152.4,139.7,
N#C/N=C1\SCCN1Cc1ccc(Cl)nc1 [Thiacloprid],,154.5,174.2,159.6,
CN1COCN(Cc2cnc(Cl)s2)C1=N[N+](=O)[O-] [Thiamethoxam],159.9,158.3,162.1,,
Cc1ncc(C[n+]2csc(CCO)c2C)c(N)n1 [Thiamine nitrate],,,,,collision cross section in nitrogen [4]: 161.5 Å²
Cc1ncc(C[n+]2csc(CCO)c2C)c(N)n1 [Thiamine],,,,,collision cross section in nitrogen [5]: 162.7 Å²
COC(=O)c1c(C(F)F)nc(C(F)(F)F)c(C2=NCCS2)c1CC(C)C [Thiazopyr],183.2,182.6,192.1,182.1,
O=C(Nc1ccccc1)Nc1cnns1 [Thidiazuron],148.4,,,147.9,
C[CH2][Hg][S]c1ccccc1C(=O)O [Thimerosal],,146.9,,,
CSC(C)=NOC(=O)N(C)SN(C)C(=O)ON=C(C)SC [Thiodicarb],,,190.7,,
CCOC(=O)NC(=S)Nc1ccccc1NC(=S)NC(=O)OCC [Thiophanate],187,,189.6,186.6,collision cross section in nitrogen [7]: 187.5 Å²

SMILES,collision cross section in nitrogen [1] [Å²],collision cross section in nitrogen [3] [Å²],collision cross section in nitrogen [6] [Å²],collision cross section in nitrogen [2] [Å²],also measured
O=c1cc[nH]c(=S)[nH]1 [Thiouracil],,116.1,,,
Cc1c[nH]c(=O)[nH]c1=O [Thymine],,121,,,
Clc1ccccc1CN1CCc2sccc2C1 [Ticlopidine hydrochloride],156.4,,,156.8,
CC(C)(C)NC[C@H](O)COc1nsnc1N1CCOCC1 [Timolol maleate salt],176.1,,172.7,176.5,
O=S(=O)(O)c1cc(O)c(O)c(S(=O)(=O)O)c1 [Tiron],,145.8,,,
CCOC(=O)NNc1nncc2ccccc12 [Todralazine hydrochloride],152,,158.8,151.8,
CCCCNC(=O)NS(=O)(=O)c1ccc(C)cc1 [Tolbutamide],,165,176.6,,
Cc1ccc(C(=O)c2cc(O)c(O)c([N+](=O)[O-])c2)cc1 [Tolcapone],,162.8,,,
COP(=S)(OC)Oc1c(Cl)cc(C)cc1Cl [Tolclofos-methyl],,,169.1,153.6,
Cc1cccc(N(C)C(=S)Oc2ccc3ccccc3c2)c1 [Tolnaftate],175.5,,185.4,175.4,
Cc1ccc(N(SC(F)(Cl)Cl)S(=O)(=O)N(C)C)cc1 [Tolylfluanid],,,177.6,,
CCCc1c(OCCCCc2nnn[nH]2)ccc(C(C)=O)c1O [Tomelukast],,,177.6,,
CC1(C)O[C@@H]2[C@@H](CO[C@@]3(COS(N)(=O)=O)OC(C)(C)O[C@@H]23)O1 [Topiramate],,174.7,171.7,,
Cc1c(C(=O)c2cnn(C)c2O)ccc(S(C)(=O)=O)c1C1=NOCC1 [Topramezone],,182.9,181.1,,
CCON=C(CC)C1=C(O)CC(c2c(C)cc(C)cc2C)CC1=O (configuration not stated) [Tralkoxydim],187.3,188.9,196.2,187,
N#Cc1c(-c2ccc(Cl)cc2)[nH]c(C(F)(F)F)c1Br [Tralopyril],,157.9,,,
COc1cccc([C@@]2(O)CCCC[C@@H]2CN(C)C)c1 [Tramadol],160.6,,171.7,161.1,
O=c1n(CCCN2CCN(c3cccc(Cl)c3)CC2)nc2ccccn12 [Trazodone hydrochloride],192.5,,195.7,192,
CCCCCCCCOC(=O)c1ccc(C(=O)OCCCCCCCC)c(C(=O)OCCCCCCCC)c1 [Tri-n-octyl trimellitate],,,263.7,259,
Cc1ccccc1OP(=O)(Oc1ccccc1C)Oc1ccccc1C [Tri-o-cresyl phosphate],182.7,,192.7,182.3,
CC(C)(C)C(=O)C(Oc1ccc(Cl)cc1)n1cncn1 (configuration not stated) [Triadimefon],174.6,167.7,,173.6,
Nc1nc(N)c2nc(-c3ccccc3)c(N)nc2n1 [Triamterene],158.4,157.7,173,158.3,collision cross section in nitrogen [7]: 155 Å²
O=C(Nc1ccc(Br)cc1)c1cc(Br)cc(Br)c1O [Tribromsalan],,173.7,,,
CCCCSP(=O)(SCCCC)SCCCC [Tribufos],177.5,,194.4,177.2,
